Laboratory results reported in patent US20100210506A1, “INTRANASAL ADMINISTRATION OF RAPID ACTING INSULIN” (MDRNA, INC., priority 2005, published 2010).
“Also recorded” adds a separate entry of the source.

Legend:
[1] = tested on: S. aureus, A. niger, P. auerignosa; assay: Antimicrobial Effectiveness Testing, U.S. Pharmacopeial (USP <51>); format: cell-based; conditions: USP and EP AET, insulin nasal spray formulations at neutral pH
Protocol: AET Study 1 was conducted to determine the Antimicrobial Effectiveness (AET) of an insulin nasal spray placebo with methylparaben sodium, propylparaben sodium, and propylene glycol. Additionally, AET Study 1 examined the AET of increased EDTA alone. Approximately 120 mL of each formulation was manufactured and tested in duplicate (n=2 analyses per sample).
(§1) The AET methods used were in compliance with the requirements for U.S. Pharmacopeial (USP) and European Pharmacopeial (EP) AET and are described in Tables 34 and 35, respectively. The formulations were also tested for pH (per SOP 403), appearance (visual), and osmolality (per SOP 4000).

[2] = pH, appearance (visual) and osmolality of AET formulations; format: physicochemical; conditions: preservative within insulin nasal spray formulation
Protocol: as §1

compatibility with insulin [2]	SMILES	antimicrobial effectiveness as preservative [1]	antimicrobial effectiveness as preservative ([1]; listed as benzyl alcohol)	antimicrobial effectiveness as preservative ([1]; listed as benzakonium chloride)	compatibility with insulin ([2]; listed as benzakonium chloride)
–	OCc1ccccc1 [Benzyl alcohol]	not effective preservatives at neutral pH; also recorded: ineffective as antimicrobial reagents	not effective preservatives	–	–
–	Cc1cccc(O)c1 [m-cresol]	not effective preservatives	–	–	–
–	O=C([O-])c1ccccc1.[Na+] [sodium benzoate]	not effective preservatives at neutral pH	–	–	–
–	CCO [Ethanol]	antimicribal activity similar to that of methylparaben sodium/propylparaben sodium/propylene glycol; also recorded: not an effective preservative (at 1%)	–	–	–
incompatible with insulin	CCCCCCCCCCCCC[N+](C)(C)Cc1ccccc1 [Benzalkonium chloride]	excellent preservative	–	best antimicrobial performance	incompatible with insulin (caused precipitation)
